# Reference: US20070213339A1 (Bayer Pharmaceuticals Corporation, priority 2004, published 2007)
# pIC50: −log10 of the molar value.
# System: Colo205 human colon carcinoma cell line
# Assay: In vitro tumor cell proliferation assay (MTS, CellTiter 96 Aqueous One Solution)
# Type: cell-based
# Conditions: COLO 205, Colo205 cells, 72 hours compound exposure, MTS absorbance at 490 nm, read-out: IC50 (concentration of test compound required to inhibit proliferation of 50% of the cells)
# Method: In Vitro Tumor Cell Proliferation Assay
# The adherent H460 human non-small cell lung carcinoma and Colo205 human colon carcinoma cell lines were purchased from the American Type and Culture Collection (ATCC, Manassas, Va.) and maintained in RPMI-1640 growth media supplemented with 10% heat inactivated fetal bovine serum (Gibco, Invitrogen Corp. Grand Island, N.Y.). At 37° C. in a humidified atmosphere of 5% CO2.
# The CellTiter 960 Aqueous One Solution kit, MTS, (Promega, Madison, Wis.) was used to measure proliferation of tumor cell lines in vitro. This method monitors the bioreduction of a tetrazolium dye as a measure of cell viability. On Day 0, exponentially growing cells were trypsinized, resuspended in RPMI-1640 growth media supplemented with 10% FCS, 100 u/ml of penicillin G and 100 ug/ml of streptomycin sulfate, and seeded at 2000 cells per well into 96 well microtiter plates. Cells were incubated overnight in a humidified atmosphere of 5% CO2 at 37° C. On Day 1, serial dilutions of compounds were prepared at 2× the finial assay concentration. One hundred microliters of 2× solution was added to test wells in duplicate and control wells received no test compound. The final drug concentration ranged from 0 to 10-20 um in a 5 point dose-response curve. Cells were incubated in the presence of test compounds in a humidified atmosphere of 5% CO2 at 37° C. for 72 hours. After 72 hours of compound exposure, 40 ul of Promega CellTiter 960 Aqueous One Solution was added to each well and absorbance at 490 n-M was measured using a multi-well plate reader. Percent inhibition of proliferation was calculated using the following formula: 100×(1−Absorbancetreated−Background/(Absorbancecontrol−Background)
# Absorbancetreated=absorbance at 490 nm in test wells, cells with test compound
# Absorbancecontrol=absorbance at 490 nm in control wells, cells with no test compound
# Background=absorbance 490 nm in wells containing media and no cells
# The concentration of test compound required to inhibit proliferation of 50% of the cells (IC50) was determined by linear regression analysis.
# Representative compounds of the invention were tested in the above-described Colo205 human colon carcinoma cell line in vitro assay and found to inhibit human colon carcinoma cell proliferation, and are summarized as follows: […]
row,pIC50,SMILES
1,4.70 to 5.70,"CON(C)Cc1ccc(-n2cc(C(=O)O)c(=O)c3cc(F)c(N4CCN(c5ccc(F)cc5)CC4)c(Cl)c32)cc1 [Example 51, 8-chloro-6-fluoro-7-[4-(4-fluorophenyl)-piperazin-1-yl]-1-(4-{[methoxy(methyl)amino]methyl}phenyl)-4-oxo-1,4-dihydroquinoline-3-carboxylic acid]"
2,> 6.30,"O=C(O)c1cn(-c2ccc(CNC3CCC[C@@H]3O)cc2)c2c(Cl)c(N3CCN(c4ccccn4)CC3)c(F)cc2c1=O (stereo in doubt) [Example 172, 8-chloro-6-fluoro-1{4-[(2-hydroxycyclopentylamino)-methyl]-phenyl}-4-oxo-7-(4-pyridin-2-yl-piperazine-1-yl)-1,4-dihydro-quinoline-3-carboxylic acid]"
3,5.70 to 6.30,"O=C(O)c1cn(-c2ccc(CN3CCCC3)cc2F)c2c(Cl)c(N3CCN(c4ccccn4)CC3)c(F)cc2c1=O [Example 46, 8-chloro-6-fluoro-1-[2-fluoro-4-(pyrrolidin-1-ylmethyl)phenyl]-4-oxo-7-(4-pyridin-2-ylpiperazin-1-yl)-1,4-dihydroquinoline-3-carboxylic acid]"
4,> 6.30,"CCN(CC)Cc1ccc(-n2cc(C(=O)O)c(=O)c3cc(F)c(N4CCN(c5ccccc5F)CC4)c(OC(F)(F)F)c32)cc1 [Example 135, 1-{4-[(diethylamino)methyl]phenyl}-6-fluoro-7-[4-(2-fluorophenyl)piperazin-1-yl]-4-oxo-8-(trifluoromethoxy)-1,4-dihydroquinoline-3-carboxylic acid]"
5,> 6.30,"O=C(O)c1cn(-c2ccc(CNC3CCCC3)cc2)c2c(OC(F)(F)Cl)c(N3CCN(c4ccc(F)cc4)CC3)c(F)cc2c1=O [Example 181, 8-(chloro-difluoromethoxy)-1-(4-cyclopentylaminomethyl-phenyl)-6-fluoro-4-oxo-7-[4(4-fluorophenyl)piperazine-1-yl]-1,4-dihydroquinoline-3-carboxylic acid]"
6,> 6.30,"CCN(CC)Cc1ccc(-n2cc(C(=O)O)c(=O)c3cc(F)c(N4CCN(c5ccccn5)CC4)c(OC(F)(F)Cl)c32)cc1 [Example 159, 8-[chloro(difluoro)methoxy]-1-{4-[(diethylamino)methyl]phenyl}-6-fluoro-4-oxo-7-(4-pyridin-2-ylpiperazin-1-yl)-1,4-dihydroquinoline-3-carboxylic acid]"
7,5.70 to 6.30,"O=C(O)c1cn(-c2ccc(CN3CCCC3)cc2)c2c(Cl)c(N3CCN(c4ccc(Cl)cc4)CC3)c(F)cc2c1=O [Example 3, 8-chloro-6-fluoro-7-[4-(4-chlorophenyl)-piperazin-1-yl]-4-oxo-1-[4-(pyrrolidin-1-ylmethyl)phenyl]-1,4-dihydroquinoline-3-carboxylic acid]"
8,> 6.30,"CCN(CC)Cc1ccc(-n2cc(C(=O)O)c(=O)c3cc(F)c(N4CCN(c5ccccc5)CC4)c(OC(F)(F)F)c32)cc1 [Example 138, 1-{4-[(diethylamino)methyl]phenyl}-6-fluoro-4-oxo-7-(4-phenylpiperazin-1-yl)-8-(trifluoromethoxy)-1,4-dihydroquinoline-3-carboxylic acid]"
9,> 6.30,"N#Cc1ccc(N2CCN(c3c(F)cc4c(=O)c(C(=O)O)cn(-c5ccc(CN6CCCC6)cc5F)c4c3Cl)CC2)cc1 [Example 48, 8-chloro-7-[4-(4-cyanophenyl)piperazin-1-yl]-6-fluoro-1-[2-fluoro-4-(pyrrolidin-1-ylmethyl)phenyl]-4-oxo-1,4-dihydroquinoline-3-carboxylic acid]"
10,> 6.30,"CCN(C)Cc1ccc(-n2cc(C(=O)O)c(=O)c3cc(F)c(N4CCN(c5ncccc5C#N)CC4)c(OC(F)(F)Cl)c32)cc1 [Example 166, 8-[chloro(difluoro)methoxy]-7-[4-(3-cyanopyridin-2-yl)piperazin-1-yl]-1-(4-{[ethyl(methyl)amino]methyl}phenyl)-6-fluoro-4-oxo-1,4-dihydroquinoline-3-carboxylic acid]"
11,> 6.30,"CCN(CC)Cc1ccc(-n2cc(C(=O)O)c(=O)c3cc(F)c(N4CCN(c5ccccc5OC)CC4)c(OC)c32)cc1 [Example 110, 1-{4-[(diethylamino)methyl]phenyl}-6-fluoro-8-methoxy-7-[4-(2-methoxyphenyl)piperazin-1-yl]-4-oxo-1,4-dihydroquinoline-3-carboxylic acid]"
12,> 6.30,"CN(C)Cc1ccc(-n2cc(C(=O)O)c(=O)c3cc(F)c(N4CCN(c5ccc(F)cc5)CC4)c(OC(F)(F)F)c32)cc1 [Example 131, 1-{4-[(dimethylamino)methyl]phenyl}-6-fluoro-7-[4-(4-fluorophenyl)piperazin-1-yl]-4-oxo-8-(trifluoromethoxy)-1,4-dihydroquinoline-3-carboxylic acid]"
13,> 6.30,"Cc1cccc(N2CCN(c3c(F)cc4c(=O)c(C(=O)O)cn(-c5ccc(CN(C)C)cc5)c4c3OC(F)(F)F)CC2)n1 [Example 127, 1-{4-[(dimethylamino)methyl]phenyl}-6-fluoro-7-[4-(6-methylpyridin-2-yl)piperazin-1-yl]-4-oxo-8-(trifluoromethoxy)-1,4-dihydroquinoline-3-carboxylic acid]"
14,4.70 to 5.70,"O=C(O)c1cn(-c2cccc(CN3CCCCC3)c2)c2c(Cl)c(N3CCN(c4ccc(F)cc4F)CC3)c(F)cc2c1=O [Example 64, 8-chloro-7-[4-(2,4-difluorophenyl)piperazin-1-yl]-6-fluoro-4-oxo-1-[3-(piperidin-1-ylmethyl)phenyl]-1,4-dihydroquinoline-3-carboxylic acid]"
15,> 6.30,"CCN(CC)Cc1ccc(-n2cc(C(=O)O)c(=O)c3cc(F)c(N4CCN(c5cccc(Cl)c5)CC4)c(OC(F)(F)F)c32)cc1 [Example 136, 7-[4-(3-chlorophenyl)piperazin-1-yl]-1-{4-[(diethylamino)methyl]phenyl}-6-fluoro-4-oxo-8-(trifluoromethoxy)-1,4-dihydroquinoline-3-carboxylic acid]"
16,5.70 to 6.30,"N#Cc1cc(C(F)(F)F)ccc1N1CCN(c2c(F)cc3c(=O)c(C(=O)O)cn(-c4ccc(CN5CCCC5)cc4)c3c2Cl)CC1 [Example 5, 8-chloro-7-{4-[2-cyano-4-(trifluoromethyl)-phenyl]piperazin-1-yl}-6-fluoro-4-oxo-1-[4 (pyrrolidin-1-ylmethyl)phenyl]-1,4-dihydroquinoline-3-carboxylic acid]"
17,> 6.30,"N#Cc1ccccc1N1CCN(c2c(F)cc3c(=O)c(C(=O)O)cn(-c4ccc(CN5CC[C@H](O)C5)cc4)c3c2Cl)CC1 [Example 30, 8-chloro-7-[4-(2-cyanophenyl)piperazin-1-yl]-6-fluoro-1-(4-{[(3S)-3-hydroxypyrrolidin-1-yl]methyl}phenyl)-4-oxo-1,4-dihydroquinoline-3-carboxylic acid]"
18,> 6.30,"CN(C)Cc1ccc(-n2cc(C(=O)O)c(=O)c3cc(F)c(N4CCN(c5ccc(F)cc5)CC4)c(OC(F)(F)Cl)c32)cc1 [Example 155, 8-[chloro(difluoro)methoxy]-1-{4-[(dimethylamino)methyl]phenyl}-6-fluoro-7-[4-(4-fluorophenyl)piperazin-1-yl]-4-oxo-1,4-dihydroquinoline-3-carboxylic acid]"
19,> 6.30,"O=C(O)c1cn(-c2ccc(CNC3CCC3)cc2)c2c(Cl)c(N3CCN(c4ncccn4)CC3)c(F)cc2c1=O [Example 191, 8-chloro-1-(4-cyclobutylaminomethyl-phenyl)-6-fluoro-4-oxo-7-(4-pyrimidin-2-yl-piperazin-1-yl)-1,4-dihydroquinoline-3-carboxylic acid]"
20,> 6.30,"O=C(O)c1cn(-c2ccc(CN3CCCC3)cc2)c2c(OC(F)(F)Cl)c(N3CCN(c4ccc(F)cc4)CC3)c(F)cc2c1=O [Example 147, 8-[chloro(difluoro)methoxy]-6-fluoro-7-[4-(4-fluorophenyl)piperazin-1-yl]-4-oxo-1-[4-(pyrrolidin-1-ylmethyl)phenyl]1,4-dihydroquinoline-3-carboxylic acid]"
21,5.70 to 6.30,"COc1c(N2CCN(c3ccccc3C#N)CC2)c(F)cc2c(=O)c(C(=O)O)cn(-c3ccc(CN4CCCC4)cc3)c12 [Example 81, 7-[4-(2-cyanophenyl)piperazin-1-yl]-6-fluoro-8-methoxy-4-oxo-1-[4-(pyrrolidin-1-ylmethyl)phenyl]-1,4-dihydroquinoline-3-carboxylic acid]"
22,5.70 to 6.30,"N#Cc1ccc(N2CCN(c3c(F)cc4c(=O)c(C(=O)O)cn(-c5ccc(CN6CCCC6)cc5F)c4c3Cl)CC2)nc1 [Example 47, 8-chloro-7-[4-(5-cyanopyridin-2-yl)piperazin-1-yl]-6-fluoro-1-[2-fluoro-4-(pyrrolidin-1-ylmethyl)phenyl]-4-oxo-1,4-dihydroquinoline-3-carboxylic acid]"
